≈ marks a conversion by molar mass, not a printed value.
What was measured:
Candida albicans [1] = assay: Antifungal activity against Candida albicans MCC 50319 after 16 to 20 hrs by CLSI standard method; assay type: functional
[2] = Aqueous solubility at pH 4; assay type: physicochemical; details: aqueous solution
[3] = Therapeutic index, ratio of CT50 for mouse L929 cells to MFC for Candida albicans; assay type: cell-based; details: read-out: TI
[4] = Therapeutic index, ratio of CT50 for mouse L929 cells to MBC for Staphylococcus aureus; assay type: cell-based; details: read-out: TI
Staphylococcus aureus [5] = assay: Antibacterial activity against Staphylococcus aureus MCC 91731 after 16 to 20 hrs by CLSI standard method; assay type: functional
[6] = Cytotoxicity against mouse L929 cells; assay type: cell-based; details: read-out: CT50 (the source's name)
[7] = Therapeutic index, ratio of CT50 for mouse L929 cells to MBC for Escherichia coli; assay type: cell-based; details: read-out: TI
Staphylococcus aureus [8] = assay: Antibacterial activity against Staphylococcus aureus ATCC 29213 after 16 to 20 hrs by CLSI standard method; assay type: functional
Candida albicans [9] = assay: Antifungal activity against Candida albicans ATCC 10231 after 16 to 20 hrs by CLSI standard method; assay type: functional
Escherichia coli [10] = assay: Antibacterial activity against Escherichia coli ATCC 25922 after 16 to 20 hrs by CLSI standard method; assay type: functional
Escherichia coli [11] = assay: Antibacterial activity against Escherichia coli MCC 80392 after 16 to 20 hrs by CLSI standard method; assay type: functional

| SMILES | MFC (Candida albicans [1]) | half-life [2] | selectivity ratio [3] | selectivity ratio [4] | MBC (Staphylococcus aureus [5]) | CC50 [6] | selectivity ratio [7] | MBC (Staphylococcus aureus [8]) | MFC (Candida albicans [9]) | MBC (Escherichia coli [10]) | MBC (Escherichia coli [11]) |
| --- | --- | --- | --- | --- | --- | --- | --- | --- | --- | --- | --- |
| CCOP(=O)(O)CC(C)(C)N(Cl)Cl | 32 µg/mL (≈ 128 µM) | > 18 days | 2 | 8 | 2 µg/mL (≈ 8 µM) | 80 µg/mL (≈ 320 µM) | 8 | – | – | – | – |
| CC(=O)NS(=O)(=O)CC(C)(C)N(Cl)Cl | – | 44 days | 2 | 8 | – | – | 8 | 1 µg/mL (≈ 3.8 µM) | 64 µg/mL (≈ 243 µM) | 2 µg/mL (≈ 7.6 µM) | – |
| CC(C)(COC(=O)CCS(=O)(=O)O)N(Cl)Cl | 4 µg/mL (≈ 13.6 µM) | 64 days | 2 | 8 | 1 µg/mL (≈ 3.4 µM) | 130 µg/mL (≈ 442 µM) | 8 | – | – | 2 µg/mL (≈ 6.8 µM) | – |
| CC(C)(CS(=O)(=O)[O-])N(Cl)Cl.[Na+] | 32 µg/mL | > 200 days | 2 | 8 | 1 µg/mL | 1200 µg/mL | 8 | – | – | – | 4 µg/mL |
| CC(C)(CS(=O)(=O)CCS(=O)(=O)O)N(Cl)Cl | – | > 95 days | 2 | 8 | – | 1820 µg/mL (≈ 5790 µM) | 8 | 8 µg/mL (≈ 25.5 µM) | 64 µg/mL (≈ 204 µM) | 4 µg/mL (≈ 12.7 µM) | – |
| CC(C)(CS(=O)(=O)O)C(=O)OCC(C)(C)N(Cl)Cl | – | 80 days | 2 | 8 | – | 840 µg/mL (≈ 2610 µM) | 8 | 8 µg/mL (≈ 24.8 µM) | 16 µg/mL (≈ 49.7 µM) | 4 µg/mL (≈ 12.4 µM) | – |
| CC(C)(CCCS(=O)(=O)O)N(Cl)Cl | > 128 µg/mL | 16 days | 2 | 8 | 8 µg/mL (≈ 32 µM) | 640 µg/mL (≈ 2560 µM) | 8 | – | – | – | 8 µg/mL (≈ 32 µM) |
| CC(C)(CCS(=O)(=O)O)N(Cl)Cl | – | 174 days | 2 | 8 | – | 1900 µg/mL (≈ 8050 µM) | 8 | 4 µg/mL (≈ 16.9 µM) | 16 µg/mL (≈ 67.8 µM) | 4 µg/mL (≈ 16.9 µM) | – |
| CC(C)(CC(=O)OCCS(=O)(=O)O)N(Cl)Cl | – | > 95 days | 2 | 8 | – | 270 µg/mL (≈ 918 µM) | 8 | 2 µg/mL (≈ 6.8 µM) | 64 µg/mL (≈ 218 µM) | 2 µg/mL (≈ 6.8 µM) | – |
| CC(C)(CP(=O)(O)O)N(Cl)Cl | – | 23 days | 2 | 8 | – | 130 µg/mL (≈ 586 µM) | 8 | 16 µg/mL (≈ 72.1 µM) | 16 µg/mL (≈ 72.1 µM) | 8 µg/mL (≈ 36 µM) | – |
